Where a SMILES comes first, the peptide text is derived from it. [ ]: non-standard residue; d: D form. Nle = CCCC[C@H](N)C(=O)O

From publication PMC8041284, “Tunable Methacrylamides for Covalent Ligand Directed Release Chemistry” (Journal of the American Chemical Society, 2021) come the findings set out here.

Sequence of BTK (Q06187 402-655 limits assumed): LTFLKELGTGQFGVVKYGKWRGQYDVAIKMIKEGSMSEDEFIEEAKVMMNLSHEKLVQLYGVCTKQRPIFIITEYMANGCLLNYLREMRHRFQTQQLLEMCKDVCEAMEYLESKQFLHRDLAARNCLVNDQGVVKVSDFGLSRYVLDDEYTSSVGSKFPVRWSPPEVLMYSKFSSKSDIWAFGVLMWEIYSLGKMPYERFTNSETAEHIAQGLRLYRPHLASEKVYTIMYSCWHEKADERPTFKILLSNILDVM

The first assay addresses BTK (Homo sapiens, UniProt Q06187). The experiment in a line: biochemical. The conditions noted are these: read-out: BTK inhibition (%).
As to `O=C(O)[C@H]1O[C@@H](Oc2cc3oc(-c4ccc(O)cc4)cc(=O)c3c(O)c2O)[C@H](O)[C@@H](O)[C@@H]1O` [PCM-0215170], the inhibition at 10 µM amounted to 0%.

Turning to `C[C@@H]1C(=O)O[C@H]2[C@H](O)[C@]34[C@@H]5OC(=O)[C@]3(O[C@@H]3OC(=O)[C@H](O)[C@@]34[C@H](C(C)(C)C)[C@H]5O)[C@@]12O` [PCM-0215011], the inhibition at 10 µM amounted to 5.4%.

The same assay, now with this note: read-out: BTK inhibition (%), 0.75 uM BTK, […] probe 3l, 15 min preincubation.
With `O=c1cc(-c2ccc(O[C@@H]3O[C@H](CO)[C@@H](O)[C@H](O)[C@H]3O)cc2)oc2c([C@@H]3O[C@H](CO)[C@@H](O)[C@H](O)[C@H]3O)c(O)cc(O)c12` [PCM-0216358], the inhibition at 10 µM is -3.9%.

As for `Cc1ccc(S(=O)(=O)Cc2nc(-c3ccc(C(=O)NCc4cccnc4)cc3)oc2C)cc1` [PCM-0215271], the inhibition at 10 µM is -4.6%.

Take `CN1CCN(c2ccc(C(=O)Nc3n[nH]c4ccc(Cc5cc(F)cc(F)c5)cc34)c(NC3CCOCC3)c2)CC1` [PCM-0215551]: the inhibition at 10 µM came to 103%.

For the molecule `CC(/C=C1\SC(=S)N(CC(=O)O)C1=O)=C\c1ccccc1` [PCM-0095314], the inhibition at 10 µM is -47.7%.

In the case of `O=C(O)c1cn(C2CC2)c2cc(Cl)c(F)cc2c1=O` [PCM-0216105], the inhibition at 10 µM worked out at 7.7%.

As to `COc1cc2nc(N3CCCC3)nc(NCCCCCN3CCCC3)c2cc1OC` [PCM-0215440], the inhibition at 10 µM is 17.8%.

For the molecule `CCC[C@@H]1C[C@@H](C(=O)N[C@@H]([C@H]2O[C@H](SC)[C@H](O)[C@@H](O)[C@H]2O)[C@@H](C)O)N(C)C1` [PCM-0095227], the inhibition at 10 µM was -4.7%.

As to `Nc1nc(-c2nn(Cc3ccccc3F)c3ncccc23)ncc1C1CC1` [PCM-0215570], the inhibition at 10 µM is -5.4%.

In the case of `Cn1nnnc1SCC1=C(C(=O)O)N2C(=O)[C@@H](NC(=O)[C@H](OC=O)c3ccccc3)[C@H]2SC1` [PCM-0214900], the inhibition at 10 µM is 8.6%.

`c1ccc2[nH]c(-c3cscn3)nc2c1` [PCM-0086067]: the inhibition at 10 µM was -17.1%.

Regarding `O=C1CCc2ccc(OCCCCN3CCN(c4cccc(Cl)c4Cl)CC3)cc2N1` [PCM-0086268], the inhibition at 10 µM was -10.9%.

With `OC[C@H]1O[C@@](CO)(OC[C@@]2(OC[C@@]3(O[C@H]4O[C@H](CO)[C@@H](O)[C@H](O)[C@H]4O)O[C@H](CO)[C@@H](O)[C@@H]3O)O[C@H](CO)[C@@H](O)[C@@H]2O)[C@@H](O)[C@@H]1O` [PCM-0216359], the inhibition at 10 µM was found to be 7.7%.

As for `CCC[C@H](NC(=O)[C@@H]1[C@H]2CCC[C@H]2CN1C(=O)[C@@H](NC(=O)[C@@H](NC(=O)c1cnccn1)C1CCCCC1)C(C)(C)C)C(=O)C(=O)NC1CC1` [PCM-0214791], the inhibition at 10 µM was -3.1%.

On to `CSC[C@H](N)C(=O)O` [PCM-0215958], for which the inhibition at 10 µM is 2.6%.

As to `C=C(C)[C@H]1CC=C(C)CC1` [PCM-0216628], the inhibition at 10 µM was 5.4%.

Turning to `CN1C(=O)CCS(=O)(=O)C1c1ccc(Cl)cc1` (stereo not drawn) [PCM-0065261], the inhibition at 10 µM was -14%.

For the molecule `O=c1cc(N2CCOCC2)oc2c(-c3ccc4c(c3)OCCO4)csc12` [PCM-0215845], the inhibition at 10 µM came to 23.4%.

As to `O=c1cc(-c2cccc3c2Sc2ccccc2S3)oc(N2CCOCC2)c1` [PCM-0095067], the inhibition at 10 µM was -12.4%.

For the molecule `OC[C@@H](O)[C@@H](O[C@H]1O[C@H](CO)[C@@H](O)[C@H](O)[C@H]1O)[C@H](O)[C@@H](O)CO` [PCM-0215074], the inhibition at 10 µM was -16.3%.

For the molecule `C[C@H](NC(=O)/C(C#N)=C/c1cccc(Br)n1)c1ccccc1` [PCM-0095390], the inhibition at 10 µM turned out to be 12.4%.

Take `CN(C)CCc1ccc(O)cc1` [PCM-0094832]: the inhibition at 10 µM is -21.8%.

Turning to `CO[C@H]1C[C@@H]2CC[C@@H](C)[C@@](O)(O2)C(=O)C(=O)N2CCCC[C@H]2C(=O)O[C@H]([C@H](C)C[C@@H]2CC[C@@H](OCCO)[C@H](OC)C2)CC(=O)[C@H](C)/C=C(\C)[C@@H](O)[C@@H](OC)C(=O)[C@H](C)C[C@H](C)/C=C/C=C/C=C/1C` [PCM-0214563], the inhibition at 10 µM is -12.4%.

For the molecule `Nc1ncnc2c1ncn2[C@@H]1O[C@H](COP(=O)(O)O)[C@@H](O)[C@H]1O` [PCM-0086027], the inhibition at 10 µM was -23.2%.

In the case of `CC1(C)OC[C@@H](COC(=O)CCc2ccc(OC[C@@H](O)CNCCNC(=O)N3CCOCC3)cc2)O1` [PCM-0216254], the inhibition at 10 µM was -3.1%.

`CC(=O)O[C@H]1C(=O)[C@]2(C)[C@H](O)C[C@H]3OC[C@@]3(OC(C)=O)[C@H]2[C@H](OC(=O)c2ccccc2)[C@]2(O)C[C@H](OC(=O)[C@H](O)[C@@H](NC(=O)c3ccccc3)c3ccccc3)C(C)=C1C2(C)C` [PCM-0216508]: the inhibition at 10 µM stood at 16.2%.

`O=C1CN2Cc3c(ccc(Cl)c3Cl)N=C2N1` [PCM-0090482]: the inhibition at 10 µM was -15.2%.

Regarding `NCC(O)c1ccc(O)cc1` (stereo not drawn) [PCM-0064912], the inhibition at 10 µM is 2.3%.

In the case of `Cc1cccc(C(C)c2cnc[nH]2)c1C` (stereo not drawn) [PCM-0095548], the inhibition at 10 µM was -14.8%.

For the molecule `C/C=C(/C)C(=O)OC(C)(C)[C@@H]1Cc2c(ccc3ccc(=O)oc23)O1` [PCM-0216607], the inhibition at 10 µM is -23.9%.

In the case of `C=C1C[C@@]23CC[C@H]4[C@@](C)(CCC[C@@]4(C)C(=O)O)[C@@H]2CC[C@@H]1C3` [PCM-0216330], the inhibition at 10 µM is -3.9%.

Take `CCCC[C@@H](C=O)NC(=O)[C@H](CC(C)C)NC(=O)[C@H](CC(C)C)NC(C)=O` [PCM-0215374] (Ac-Leu-Leu-[Nle]-aldehyde): the inhibition at 10 µM is 18.5%.

In the case of `NCC[C@H](O)C(=O)N[C@@H]1C[C@H](N)[C@@H](O[C@H]2O[C@H](CN)[C@@H](O)[C@H](O)[C@H]2O)[C@H](O)[C@H]1O[C@H]1O[C@H](CO)[C@@H](O)[C@H](N)[C@H]1O` [PCM-0215174], the inhibition at 10 µM was found to be 9.4%.

On to `NS(=O)(=O)c1cc2c(cc1Cl)NC(C(Cl)Cl)NS2(=O)=O` (stereo not drawn) [PCM-0086441], for which the inhibition at 10 µM was -14%.

Turning to `COC(=O)Nc1ccc(-c2nc(N3CCOCC3)c3cnn(C4CCN(C(=O)OC)CC4)c3n2)cc1` [PCM-0095038], the inhibition at 10 µM was determined as 18.6%.

On to `O=C[C@H](O)[C@@H](O)[C@H](O)[C@H](O)CO[C@H]1O[C@H](CO[C@H]2O[C@H](CO)[C@H](O)[C@H](O)[C@H]2O)[C@H](O)[C@H](O)[C@H]1O` [PCM-0216378], for which the inhibition at 10 µM worked out at 3.9%.

As for `C=C1C[C@@]23CC[C@H]4[C@@](C)(CCC[C@@]4(C)C(=O)O)[C@@H]2CC[C@]1(O[C@@H]1O[C@H](CO)[C@@H](O)[C@H](O)[C@H]1O[C@@H]1O[C@H](CO)[C@@H](O)[C@H](O)[C@H]1O)C3` [PCM-0216480], the inhibition at 10 µM is -3.9%.

As to `COc1cc([C@H]2Oc3cc([C@H]4Oc5cc(O)cc(O)c5C(=O)[C@@H]4O)ccc3O[C@@H]2CO)ccc1O` [PCM-0088703], the inhibition at 10 µM is 24.1%.

On to `CC[C@H]1[C@@H](O)[C@@H]2[C@H](CC[C@]3(C)[C@@H]([C@H](C)CCC(=O)O)CC[C@@H]23)[C@@]2(C)CC[C@@H](O)C[C@@H]12` [PCM-0215390], for which the inhibition at 10 µM was 2.3%.

As for `CCCNC(=O)Nc1ccc(Oc2ncnc3cc(OC)c(OC)cc23)cc1Cl` [PCM-0095113], the inhibition at 10 µM was -11%.

Consider `CC1(C)CC[C@]2(C(=O)O[C@@H]3O[C@H](CO)[C@@H](O)[C@H](O)[C@H]3O)CC[C@]3(C)C(=CC[C@@H]4[C@@]5(C)CC[C@H](O[C@@H]6O[C@H](C(=O)O)[C@@H](O)[C@H](O)[C@H]6O[C@@H]6O[C@H](CO)[C@@H](O)[C@H](O)[C@H]6O)C(C)(C)[C@@H]5CC[C@]43C)[C@@H]2C1` [PCM-0216395], for which the inhibition at 10 µM was determined as 4.6%.
